Key:
[1] = Ropivacaine pharmacokinetics and duration of effect (literature review); assay type: in vivo; details: single dose; additional doses required for longer action
Method: Ropivacaine is preferably used as the hydrochloride salt and S-enantiomer thereof for acute pain management and surgical anesthesia. […] Therefore, ropivacaine loses its sensible effect within about 4 hours and additional doses are required for a longer action.

[2] = administered intravenously, cited from earlier work

SMILES: CCCN1CCCC[C@H]1C(=O)Nc1c(C)cccc1C [Ropivacaine]
- time within which sensible effect is lost [1]: ≤ 4 h
- mean half-life of the initial phase [2]: 14 min
- mean absorption t1/2 of the slower phase ([2]; slower phase): approximately 4.2 hours
